Measurements taken from ChEMBL document CHEMBL1250488, “Structural and functional basis of resistance to neuraminidase inhibitors of influenza B viruses” (J Med Chem, 2010).

Legend:
[1] = Inhibition of Influenza B virus (B/Perth/211/2001) recombinant wild type neuraminidase expressed in Sf21 insect cells after 60 mins by MUNANA based assay
[2] = Inhibition of Influenza B virus (B/Perth/211/2001) wild type recombinant neuraminidase expressed in Sf21 insect cells preincubated for 30 mins measured after 60 mins by MUNANA based assay
[3] = Inhibition of Influenza B virus B/Gifu/11/2005 wild type neuraminidase expressed in Sf21 insect cells preincubated for 30 mins measured after 60 mins by MUNANA based assay
[4] = Inhibition of Influenza B virus B/Gifu/11/2005 wild type neuraminidase expressed in Sf21 insect cells after 60 mins by MUNANA based assay

O=C(O)C1(F)O[C@H]([C@H](O)[C@H](O)CO)[C@H](O)[C@@H](O)C1F (some centres not stated)
IC50 [1]: 37700 nM

CCC(CC)[C@H](NC(C)=O)[C@@H]1[C@H](O)[C@@H](C(=O)O)C[C@H]1NC(=N)N [PERAMIVIR ANHYDROUS]
IC50 [2]: 2.8 nM | Ki [2]: 0.6 nM | Ki [1]: 1.2 nM | IC50 [3]: 2.1 nM | Ki [3]: 0.3 nM | Ki [4]: 0.7 nM
